Consider two compounds from US9505834B2, “Methods for controlling the galactosylation profile of recombinantly-expressed proteins” (AbbVie Inc., priority 2011, dated 2016).

In assay [1] the test system is adalimumab-producing CHO cell line #3. Briefly: Example 5 culture growth & productivity. The format is cell-based, Chinese Hamster. As to conditions: 30 mM galactose alone. On the procedure:
(§1) For all studies with CHO cell lines described throughout this invention, samples were collected daily and measured for cell density and viability using a Cedex cell counter. Retention samples for titer analysis via Poros A method were collected by centrifugation at 12,000 RPM for 5 min when the culture viability began declining. The cultures were harvested by collecting 125 mL aliquots and centrifuging at 3,000 RPM for 30 min when culture viability was near or below 50%. All supernatants were stored at −80° C. until analysis.
Growth and production media for the adalimumab-producing CHO cell line #3 were prepared using the proprietary Life Technologies Gibco chemically defined media, GIA-1.
Upon thaw, cells were expanded in Corning vented non-baffled shake flasks maintained on orbital shakers at 140 RPM, and in 10 L cell bags (2 L working volume) maintained at 25 RPM, 7° angle, and 0.25 SLPM airflow in a dry incubator at 36° C. and 5% CO2. Production cultures were initiated in 3 L bioreactors (1.4 L initial working volume) at 36° C., 30% dissolved oxygen, 200 RPM, and pH 6.9±0.2. A fixed split ratio of cells to media of 1:6.7 was utilized to initiate the production stage cultures. A temperature shift was performed when the culture VCD reached a value higher than 5×10^6 cells/mL. […]

Assay [2] has as its system CHO cell line producing mAb #2. As for the experimental part: as §1
Growth and production media for the mAb #2 producing CHO cell line were prepared using the proprietary Life Technologies Gibco chemically defined media, GIA-1.
Upon thaw, cells were expanded in Corning vented non-baffled shake flasks maintained on orbital shakers at 140 RPM, and in 10 L cell bags (2 L working volume) maintained at 25 RPM, 7° angle, 0.25 SLPM airflow in a dry incubator at 36° C. and 5% CO2. Production cultures were initiated in 3 L bioreactors (1.5 L initial working volume) at 36° C., 25% dissolved oxygen, 200 RPM, and pH 7.0. The chemically-defined feed from Life Technologies Gibco JCL-5 was added as follows: 3% (v/v)—day 3, 5%—day 5, 7%—day 7, 10%—day 9, and 10%—day 11. […] Bioreactors were harvested at viability of approximately 70% or below or on production day 15, whichever condition occurred first. […]

Assay [3] deals with adalimumab-producing CHO cell line. The following applies: 10 μM manganese chloride; within historical variation. As for the experimental part: as §1
All media were filtered through Corning 0.5 L or 1 L filter systems (0.22 μm PES) and stored at 4° C. until use.
Production cultures were initiated in duplicate 500 mL Corning vented non-baffled shake flasks (200 mL working volume) at an initial VCD of approximately 0.5×10^6 cells/mL. Cultures were maintained on orbital shakers at 110 RPM in a dry incubator at 35° C. and 5% CO2. A glucose solution (1.25% (v/v) of 40% solution) was fed when the media glucose concentration fell below 3 g/L.

Where two headings read alike, the source gives them in different places.

For the compound `O=C[C@H](O)[C@@H](O)[C@@H](O)[C@H](O)CO` [galactose, D(+)Galactose], the growth profile entry in assay [1] was “grew slower and reached a lower peak VCD”.
As to “Manganese (II) Chloride [manganese chloride]”, the growth profile entry was “grew slower after production day 7” in assay [2] (25 μM manganese chloride alone) and “growth profiles comparable to the control culture” in assay [2] (manganese chloride 50 μM or 75 μM). The “maximum VCD compared to all other cultures” value in assay [3] was “slightly higher maximum VCD”.
